In ChEMBL document CHEMBL4765322, “Novel curcumin derivatives as P-glycoprotein inhibitors: Molecular modeling, synthesis and sensitization of multidrug resistant cells to doxorubicin” (Eur J Med Chem, 2020):

Key:
[1] = Cytotoxicity against human K562/4 cells assessed as reduction in cell viability measured after 72 hrs by MTT assay; assay type: cell-based; conditions: K562/4, 72 h
[2] = Inhibition of P-gp mediated multidrug resistance in human K562/4 cells assessed as sensitization of cells to doxorubicin by measuring reduction in cell viability preincubated with compound for 30 mins prior to 1 uM doxorubicin addition and measured after 72 hrs by MTT assay; assay type: cell-based
K562/4 = conditions: Homo sapiens
Description: Inhibition of P-gp-mediated doxorubicin efflux in human K562/4 cells assessed as minimal concentration required for the effect by flow cytometric analysis

| Structure (SMILES) | IC50 [1] | IC50 [2] | MED (K562/4) |
| --- | --- | --- | --- |
| COc1cc(/C=C/c2cc(/C=C/c3ccc(O)c(OC)c3)n(-c3ccc(C(=O)OC(C)C)cc3)n2)ccc1O | 12.5 µM | – | – |
| CCOC(=O)c1ccc(-n2nc(/C=C/c3ccc(OC)c(OC)c3)cc2/C=C/c2ccc(OC)c(OC)c2)cc1 | > 50 µM | 0.8 µM | – |
| COc1cc(/C=C/c2cc(/C=C/c3ccc(O)c(OC)c3)n(-c3ccc(C(=O)OC/C=C(\C)CCC=C(C)C)cc3)n2)ccc1O | > 25 µM | – | – |
| COc1cc(/C=C/c2cc(/C=C/c3ccc(O)c(OC)c3)n(-c3ccc(F)cc3)n2)ccc1O | 10.8 µM | – | – |
| COc1cc(/C=C/c2cc(/C=C/c3ccc(O)c(OC)c3)n(-c3ccc(C(=O)OCC(F)(F)F)cc3)n2)ccc1O | > 25 µM | – | – |
| CCNC(=O)c1ccc(-n2nc(/C=C/c3ccc(O)c(OC)c3)cc2/C=C/c2ccc(O)c(OC)c2)cc1 | 4.3 µM | – | – |
| CCNS(=O)(=O)c1ccc(-n2nc(/C=C/c3ccc(OC)c(OC)c3)cc2/C=C/c2ccc(OC)c(OC)c2)cc1 | > 50 µM | 0.5 µM | – |
| COC(=O)c1ccc(-n2nc(/C=C/c3ccc(O)c(OC)c3)cc2/C=C/c2ccc(O)c(OC)c2)cc1 | 9.6 µM | – | – |
| CCOC(=O)c1ccc(-n2nc(/C=C/c3ccc(OC)c(OC)c3)cc2/C=C/c2ccc(OC)c(OC)c2)cc1[N+](=O)[O-] | > 50 µM | – | – |
| CCOC(=O)c1ccc(-n2nc(/C=C/c3ccc(O)cc3)cc2/C=C/c2ccc(O)cc2)cc1 | 11.1 µM | – | – |
| CCNC(=S)c1ccc(-n2nc(/C=C/c3ccc(OC)c(OC)c3)cc2/C=C/c2ccc(OC)c(OC)c2)cc1 | > 50 µM | 0.5 µM | – |
| CCOC(=O)c1ccc(-n2nc(/C=C/c3ccc(O)c(OC)c3)cc2/C=C/c2ccc(O)c(OC)c2)cc1 | 10.2 µM | – | – |
| CCOC(=O)c1ccc(-n2nc(/C=C/c3ccc(O)cc3)cc2/C=C/c2ccc(O)cc2)cc1F | 10.3 µM | – | – |
| CCOC(=O)c1ccc(-n2nc(/C=C/c3ccc(OC)c(OC)c3)cc2/C=C/c2ccc(OC)c(OC)c2)cc1F | > 50 µM | 0.2 µM | – |
| COc1cc(/C=C/c2cc(/C=C/c3ccc(O)c(OC)c3)n(-c3ccc(C(=O)OCC(C)C)cc3)n2)ccc1O | 6.4 µM | – | – |
| COc1ccc(/C=C/c2cc(/C=C/c3ccc(OC)c(OC)c3)n(-c3ccc(C(=O)NCC(C)C)cc3)n2)cc1OC | > 50 µM | 0.4 µM | – |
| CCNC(=O)c1ccc(-n2nc(/C=C/c3ccc4c(c3)OCO4)cc2/C=C/c2ccc3c(c2)OCO3)cc1 | > 50 µM | – | – |
| COc1cc(/C=C/c2cc(/C=C/c3ccc(O)c(OC)c3)n(-c3ccc(C(=O)OC/C=C(\C)CC/C=C(\C)CCC=C(C)C)cc3)n2)ccc1O | > 25 µM | – | – |
| COc1cc(/C=C/c2cc(/C=C/c3ccc(O)c(OC)c3)n(-c3ccc(C(=O)OC(C)(C)C)cc3)n2)ccc1O | > 25 µM | – | – |
| CCNC(=O)c1ccc(-n2nc(/C=C/c3ccc(OC)c(OC)c3)cc2/C=C/c2ccc(OC)c(OC)c2)cc1 | > 50 µM | 0.2 µM | – |
| COc1cc2c(cc1OC)CN(CCc1ccc(NC(=O)c3cc(OC)c(OC)cc3NC(=O)c3cnc4ccccc4c3)cc1)CC2 | – | – | 1 µM |
| CCOC(=O)c1ccc(-n2nc(/C=C/c3ccc(O)c(OC)c3)cc2/C=C/c2ccc(O)c(OC)c2)cc1F | 5.4 µM | – | – |
| COc1ccc(/C=C/c2cc(/C=C/c3ccc(OC)c(OC)c3)n(-c3ccc(C(=O)N4CCCC4)cc3)n2)cc1OC | > 50 µM | 0.5 µM | – |
